Assay results: patent US12691124B2, “Methods of controlling and improving brain health” (ICAHN SCHOOL OF MEDICINE AT MOUNT SINAI, priority 2019, dated 2026)

What was measured:
primary cortical neurons [1] = test: Axion multielectrode array recording of neuronal firing; assay type: cell-based, mouse
Protocol: Axion Recordings. A 48-well multielectrode array plate (Axion) was coated with 0.1% PEI for 1 hour at 37 degrees and washed four times with deionized water. Plates were dried overnight at room temperature in a sterile hood. Plates were incubated with 20 ug/ml laminin for one hour at 37 degrees before cells were seeded onto the plate. Primary cortical neurons were plated 50,000 per well. Plates were equilibrated on the Axion Maestro system at 37 degrees C. for 5 minutes before each 10 minute recording session. Baseline activity was recorded at day 7 before cells were treated with either I-BET858 (1 um) or DMSO. Electrical activity was recorded every day until day 21 and then at regular intervals until activity was no longer detected.
Therefore to determine the effect of chronic BET inhibition on electrical activity, neurons were cultured on the Axion Microelectrode array system in the presence of IBET858. Primary cortical neurons first show electrical activity at day 7 which gradually increases over time, peaking around day 14 consistent with published time courses of synaptogenesis and electrical activity in vitro. […] In one experiment, IBET858 treated neurons lived until day 77, 86% longer than control neurons.
One could argue that the protective effect of IBET858 was caused by a decreased sensing of glutamate levels. […] To further explore this hypothesis, neuronal firing in response to a sub-lethal dose of glutamate (50 μM) was measured using the Axion system (FIG. 10A). At day 14, neurons treated with 50 μM glutamate increased their firing rate 127.4+/−44.4% compared to baseline. […] Therefore, it is appropriate to use glutamate as a neuronal death assay.

young mice = details: cited from earlier work
primary cortical neurons [2] = test: Neuronal longevity in primary cortical neuron culture (LDH, propidium iodide, cleaved caspase 3); assay type: cell-based, mouse
Text: Primary Cortical Neuron Culture. Embryonic day 18 (E18) timed-pregnant female mice were anesthetized with CO2 and sacrificed by cervical dislocation. In a dissection hood, 24-26 embryos per experiment were collected through an incision of the mother's abdomen, taken out of the amniotic sacs and decapitated in ice cold Hank's Balanced Salt Solution (HBSS). Using fine scissors and forceps, brains were rapidly dissected and the cortex cleared from meninges and isolated under a dissection microscope. Cortices were collected in ice cold HBSS and kept on ice until all embryos had been dissected. In a tissue culture hood, HBSS was removed and the cortex tissue digested by 0.25% Trypsin-EDTA for 12 minutes at 37° C., followed by DNase1 treatment for 10 minutes at 37° C. The tissue was dissociated by serial trituration with a 25 ml serological pipette, followed by trituration with 10 ml and 5 ml serological pipettes. Cell suspension was washed once with DMEM medium, supplemented with 10% FBS and 1% penicillin/streptomycin and passed through a […] cell strainer before counted on a hemocytometer. Single cells were seeded on poly-D-lysine (0.1 mg ml-1) coated wells at a density of 1×10^6 cells per well on a 12-well plate. Cells were grown in Neurobasal medium, complemented with B27 supplement, N2 supplement, and 0.5 mM L-glutamine and maintained at 37° C. in 5% CO2 for 1 week. Cultures were treated with DMSO (0.2%), I-BET858 (1 μM, 0.2% DMSO), BDNF (50 ng/ml), or BDNF+I-BET858 for 2 and 12 h on day 7 in vitro. Cultures were washed with phosphate-buffered saline (PBS) on ice and processed for RNA isolation using TRIzol/Chloroform extraction.
LDH Assay. LDH activity was measured using the Pierce LDH Cytotoxicity Assay Kit. Culture media was incubated with an equal volume of LDH master mix and incubated for 30 minutes at room temperature in the dark. After, the same volume of stop reagent was added and the absorbance was measured at 490 and 680 nm. Maximum LDH measurements were obtained by adding lysis buffer to release the total amount of LDH in the sample. LDH release is calculated as a percent of the maximum.
Propidium Iodide Assay. Propidium iodide (1 mg/ml, Life Technologies #P3566) was added to each culture well at a final concentration of 0.5 μg/ml. Cultures were incubated for 30 minutes at 37 degrees then washed with PBS. Cells were then fixed with 4% paraformaldehyde in PBS for 15 minutes at room temperature. After fixation, cells were washed with PBS and then mounted using mounting media containing DAPI.
In order to understand the effect of chronic BET inhibition on neuronal survival, primary cortical mouse neurons were cultured in the presence or absence of the brain permeable BET inhibitor IBET858 (1 μM). To quantify cell death over time, the levels of lactate dehydrogenase (LDH) were measured in culture media which is presumably released during cell death as the membranes become permeable. […] The observed decrease in LDH activity after BET inhibition occurs in a dose-dependent manner. LDH activity, which is an indirect measure of cell death, may be affected by other factors such as changes in metabolism or expression of the LDH genes. Therefore in order to confirm these findings, propidium iodide (PI) staining was used to directly quantify the number of dead neurons over time. This membrane impermeable dye increases in fluorescence 20-30 fold after intercalating DNA265. […] To give context to the magnitude of this effect on survival, this experiment was repeated with a direct comparison to the mTOR inhibitor, rapamycin (20 nM).

wild-type mice = test: Classic fear conditioning in wild-type mice; assay type: in vivo, mouse; details: five weeks of daily IBET858 injections
Protocol: […] Albans, VT) as described previously (Schaefer et al., “Control of Cognition and Adaptive Behavior by the GLP/G9a Epigenetic Suppressor Complex,” Neuron 64:678-691 (2009), which is hereby incorporated by reference in its entirety). Briefly, a mouse was placed in the test chamber (house lights on) and allowed to explore freely for 2 min. A white noise (80 dB) was then presented for 30 s, co-terminating with a mild foot shock (2 s, 0.5 mA). Two minutes later the same sequence of auditory cue-shock pairing was repeated. The mouse was removed from the chamber 30 s later and returned to its home cage. Freezing behavior was continuously recorded during the time spent in the test chamber. […] Twenty-four hours later, the mouse was placed back into the test chamber for 5 min and freezing behavior was recorded (context test). Two hours later, the mouse was tested for freezing in response to the auditory cue. Environmental and contextual cues were changed for the auditory cue test. The auditory cue test was divided into two phases: 3 min in the absence of the auditory cue and 3 min of the auditory cue. The time freezing during each test was converted to a percentage of freezing value.
To understand if these cellular and molecular improvements impact behavior, memory was assessed using the classic fear conditioning paradigm.

SMILES: CC(=O)N1c2ccc(-c3ccc(CN4CCCCC4)cc3)cc2[C@H](Nc2ccccc2)CC1C (stereo in doubt) [IBET858]
- day until which neurons lived, one experiment (primary cortical neurons [1]; 1 μM): 77 days
- lifetime longer than control neurons, one experiment (primary cortical neurons [1]; 1 μM): 86%
- neuronal survival (firing) after washout (primary cortical neurons [1]; 1 uM for 1 week followed by washout at day 14): prolonged neuronal survival that is maintained even in the absence of IBET
- activity patterns of long-lived treated neurons (primary cortical neurons [1]; 1 uM from day 7): maintain normal activity patterns
- day until which neurons continued to fire (primary cortical neurons [1]; 1 μM, control ceased firing on average at day 29): 45 days
- increase in firing rate compared to baseline after glutamate (primary cortical neurons [1]; 50 μM glutamate, day 14, control 127.4+/−44.4%): 129.3+/−26.2%
- neuronal gene expression in young mice (young mice; mouse, in vivo): selective suppression of neuronal gene expression
- behavioural phenotype of young mice (young mice; pharmacological suppression of BET proteins in the brain of young mice): development of an autism-like syndrome
- dose dependence of decrease in LDH activity (primary cortical neurons [2]): dose-dependent
- neuron survival over time, propidium iodide assay (primary cortical neurons [2]; 1 μM): survive significantly longer than control
- number of cells positive for cleaved caspase 3 (primary cortical neurons [2]; 1 μM): decreased
- LDH activity in culture media over time (primary cortical neurons [2]; 1 μM, from day 16 in vitro): significantly less LDH activity
- neuronal lifespan, IBET858 compared with rapamycin (primary cortical neurons [2]; IBET858 1 μM, rapamycin 20 nM): to the same extent as rapamycin if not more
- contextual recall (wild-type mice): significantly increased
